The nature of data set [1]: Sensory evaluation of sweeteners in coffee and iced tea. It counts as in vivo. The conditions noted are these: Coffee, 200 mL serving; aspartame 250 ppm, sucralose 82 ppm, R,R monatin 25 ppm + maltodextrin or erythritol (1 g, 0.5%). The protocol: Monatin sweetener formulations, comprising R,R monatin or R,R monatin/erythritol combinations, were assessed relative to other known sweeteners (aspartame and sucralose) in coffee and iced tea. The key sensory parameters assessed included sweetness quality, aftertaste, bitter taste and its aftertaste. Qualitative evaluation was carried out.
Standard coffee was used in which to evaluate sweetener performance (Table 17).
Sweeteners were added to coffee at the following concentrations:
An ice tea formulation was developed to evaluate sweetener performance (Table 18).
Sweeteners were added to tea at the following concentrations:
The evaluation of these coffee and tea drinks was carried out by a panel (n=6) of experienced sensory evaluators who evaluated the coffee products on one tasting occasion and the tea products on a subsequent occasion.

A short description of data set [2]: Monatin dose response, sweetness estimation in pH 3.2 model soft drink system. Type of data set: in vivo. The note with it: for SEV: pH 3.2 model soft drink system. As to the method:
Solutions of monatin (mixture of approximately 96% of the 2R,4R/2S, 4S enantiometric pair and 4% of the 2R,4S/2S,4R enantiometric pair-also called “racemic mix” of monatin”) at 15, 30, 45, 60, 75 and 90 ppm were prepared in a pH 3.2 model soft drink system that contained 0.14% (w/v) citric acid and 0.04% (w/v) sodium citrate. The sweetness of monatin relative to sucrose was determined using the sweetness estimation methodology described below. All assessments were carried out in duplicate by a panel (n=6-8) of trained panelists experienced in this sweetness determination procedure. All samples were served at a temperature of 20° C. ±1° C.
Monatin solutions were coded and presented individually to panelists, in random order. Sucrose reference standards, ranging from 2.0-11.0% (w/v) sucrose, increasing in steps of 0.5% (w/v) sucrose also were provided. Panelists were asked to estimate sweetness by comparing the sweetness of the test solution to the sucrose standards. This was carried out by taking 3 sips of the test solution, followed by a sip of water, followed by 3 sips of sucrose standard followed by a sip of water, etc. Panelists were encouraged to estimate the sweetness to one decimal place, e.g., 6.8, 8.5. A five minute rest period was imposed between evaluating the test solutions. Panelists also were asked to rinse well and eat a cracker to reduce any potential carry over effects.

Data set [3] can be described thus: Equisweet blends of monatin with carbohydrate sweeteners (parity to 10.0% sucrose). Type of data set: in vivo. The conditions noted are these: for Effective Relative Sweetness Intensity (x sucrose) of Monatin: blend with sucrose equisweet to 10.0% sucrose. As to the method:
Blends of monatin (as described in Example 14) with sucrose, HFCS (55% fructose), and glucose syrup (63 dextrose equivalents, DE) equisweet to 10.0% (w/v) sucrose were prepared. For each carbohydrate sweetener, the monatin:sweetener ratio was adjusted so that monatin delivered 25, 50, and 75% of the total sweetness. Sweetness parity to 10.0% (w/v) sucrose was determined using the sweetness estimation method described in Example 14. As in Example 14, all assessments were carried out in the pH 3.2 model soft drink system, using 6-8 panelists, each tasting in duplicate. Results are presented as Tables 7-9.

Data set [4] is described as follows: Stability of monatin at 80° C. and neutral pH, LC-MS. It counts as physicochemical. The conditions noted are these: 75 ppm. The protocol:
A 100 milliliter solution of 75 ppm monatin at pH 7 was used as a stock solution. The synthetic monatin sample contained approximately 96% of the 2R,4R/2S,4S enantiomeric pair and 4% of the 2R,4S/2S,4R enantiomeric pair. Samples were incubated at 80° C. and pH 7 for the duration of the experiment and samples were withdrawn at 0, 1, 2, 3, 4 hours and 1, 2, 4, 7, 14, 21 and 35 days. All experimental conditions were run in duplicate.
Separation and Quantification Using LC-MS Using Reverse Phase Chromatography—A response curve was established for both detected diastereomer peaks of the synthetic monatin. A range of 5-150 ppm was bracketed with the synthetic monatin standard dissolved in DI water. Separation of the two diastereomer peaks was accomplished using a 3.9×150 mm Novapak C18 (Waters Corporation) HPLC column. Ultraviolet-Visible (UV) and Mass Spectrometer (MS) detectors were used in series for detection and quantitation. Monatin and its lactone peak each have a UVmax at 279 nm that aided in precise detection. Quantification was done by acquiring Selected Ion Monitoring (SIM) scan of 293.3 m/z and 275.3 m/z in positive-ion electrospray mode.

The nature of data set [5]: Sweetness dose response of monatin and saccharin, model system pH 3.2. Type of data set: in vivo. As to the method: Sweetness of monatin and saccharin was assessed using 20 trained sensory evaluators, making judgements in duplicate. Test and reference solutions were prepared in citric/citrate buffer at pH 3.2. […] The plateau above 10% SEV indicates absence/low levels of “mixture-suppressing” off-tastes and aftertastes. The shape of monatin's dose-response curve is similar to those of aspartame, sucralose and alitame, all of which are “quality” sweeteners.

Data set [6] in a line: Quantitative synergy of monatin with other sweeteners. It counts as in vivo.
Data set [7] can be described thus: Stability of monatin at pH 3 with increasing temperatures. Type of data set: physicochemical. The protocol:
A sample of synthetic monatin was subjected to pH 3 at temperatures of 25° C., 50° C. and 100° C. At room temperature and pH 3, a 14% loss in monatin was observed over a period of 48 hours. This loss was attributed to lactone formation. At 50° C. and pH 3, a 23% loss in monatin was observed over a period of 48 hours. This loss was attributed to lactone formation and the buildup of an unknown compound after about 15.5 minutes. […] The major detectable component was an unknown at 15.5 minutes.

Data set [8] is described as follows: Stability when exposed to ultra violet (UV) light. The note with it: phosphoric/citrate buffer at pH 3.0, ambient temperature; data not shown. It counts as physicochemical. The source says: UV instability can be accelerated by certain flavor systems. UV-absorbing packaging material, colorants and/or antioxidants can protect against UV light-induced flavor interactions in monatin-containing beverages.

[9] abbreviates: sole sweetener in the model system (pH 3.2).

Where a SMILES comes first, the peptide text is derived from it.

As for `COC(=O)[C@H](Cc1ccccc1)NC(=O)[C@@H](N)CC(=O)O` [Aspartame, aspartame] (H-Asp-Phe-OMe), in data set [1], the “Comments (sensory evaluation)” value is given as “Balanced sweetness profile. Very low level”.

With `NC(CC(O)(Cc1c[nH]c2ccccc12)C(=O)O)C(=O)O` (racemic) [Monatin, 2-hydroxy-2-(indol-3-ylmethyl)-4-aminoglutaric acid], the SEV is on record as 3.6 %; w/v in data set [2] (Monatin Conc. 15 ppm); 4.9 %; w/v in data set [2] (Monatin Conc. 30 ppm); 7.1 %; w/v in data set [2] (Monatin Conc. 45 ppm); 8.5 %; w/v in data set [2] (Monatin Conc. 60 ppm); 9.8 %; w/v in data set [2] (Monatin Conc. 75 ppm); 10.5 %; w/v in data set [2] (Monatin Conc. 90 ppm). Further, the relative sweetness intensity in data set [2] (at 10.0% (w/v) SEV, blend of monatin stereoisomers (racemic mix)) is given as 1250 × sweeter than sucrose. The “Effective Relative Sweetness Intensity (x sucrose) of Monatin” value is 2000 x sucrose in data set [3] (sweetness contribution of monatin 25%, sucrose 7.5%, monatin 12.3 ppm); 1600 x sucrose in data set [3] (sweetness contribution of monatin 50%, sucrose 5.0%, monatin 30.8 ppm); 1500 x sucrose in data set [3] (sweetness contribution of monatin 75%, sucrose 2.5%, monatin 50.3 ppm). The “sweetness intensity when blended with carbohydrate sweeteners” value in data set [3] (blended with carbohydrate sweeteners) is recorded as 1500-2000 × sucrose. Also, in data set [4] (80° C. and pH 7, up to 35 days), the “change in concentration of monatin or lactones thereof” value was “no change in concentration”. For the same molecule, the “degree of degradation of monatin” value in data set [4] (80° C., pH 7, after 7-35 days) is given as “insignificant”. For the same molecule, the Aftertaste entry in data set [5] (setting [9]) is “slight “aspartame-like” aftertaste”. Further, the sweet taste decay entry in data set [5] (setting [9]) is listed as “quite rapid”. Besides, the sweet taste onset result in data set [5] (setting [9]) is “slight delay”. Moreover, in data set [5] (sole sweetener, un-flavored systems (pH 3.2)), the cooling sensation result is “residual cooling sensation”. The “quantitative synergy with aspartame, saccharin, acesulfame-K, sucralose, or carbohydrate sweeteners” value in data set [6] (blends) is on record as “no significant quantitative synergy”. In data set [6] (blends with cyclamates), the “quantitative synergy with cyclamates” value is “quantitatively synergistic”. The loss in monatin in data set [7] (50° C. and pH 3, over 48 hours) is recorded as 23%; in data set [7] (100° C. and pH 3, after 24 hours) it was “nearly all monatin was lost”; in data set [7] (room temperature (25° C.) and pH 3, over 48 hours) it was 14%. In data set [8], the “stability when exposed to ultra violet (UV) light” value is “similarly stable or slightly more stable than aspartame”.

The values above are taken from patent US20050106305A1, “Beverage compositions comprising monatin and methods of making same” (Cargill, Inc., priority 2003, published 2005).
